For data set [1], the target named is T1, HIV-1 protease (Q7S mutant form) (Human immunodeficiency virus type 1 group M subtype B, UniProt P04585, Q495S).
T1 construct: made in house
Put plainly: HIV-1 Protease RET assay. It is filed as biochemical. Particulars: Ave. Ki (nM), RET assay, Q7S enzyme, Morrison tight binding fit. In outline:
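Q7S HIV-1 protease, refolded from urea, 2 nM active dimer with 5 μM EDANS/DABCYL peptide cleaved at Tyr-Pro; fluorescence 340/490 nm. 12 min at 37 °C in 0.1M sodium acetate pH 4.8, 1M NaCl, 10% DMSO. Ki from Morrison tight-binding fit.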

In data set [2] the test system is HIV-1 (HIV-1 RF, HIV-1 NL4-3) in CEM-SS / MT-2 cells. Put plainly: Cytopathic effect (CPE) inhibition assay (XTT/MTT dye reduction). In kind it is cell-based. In outline: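 CEM-SS or MT-2 cells were infected with HIV-1 RF or NL4-3 (moi 0.025–0.819) and plated at 2×10^4 cells/well with half-log compound dilutions for 6 days. Viability was read by XTT formazan at 450 nm after 4 h. EC50 restores formazan to 50% of uninfected untreated cells, CC50 halves it in uninfected cells, and TI = CC50/EC50.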
Background: Protection from cytopathic effect is a common read-out in antiviral testing.

In another data set the test system is 461, 84V, 90M virus. The data set is described as follows: Phenotypic susceptibility assay at Virologic, Inc. It is filed as cell-based, HIV-1. The conditions noted are these: Human immunodeficiency virus 1, read-out: EC50 or IC50 (mM), values with asterisk (IC50). How it is done:
Compounds were tested in phenotypic susceptibility assays at Virologic, Inc., (See Petropoulos C. J., Parkin N. T., Limoli K. L., Lie Y. S., Wrin T., Huang W., Tian H., Smith D., Winslow G. A., Capon D J, Whitcomb J M. 2000, “A novel phenotypic drug susceptibility assay for human immunodeficiency virus type 1,” Antimicrob Agents Chemother 44(4):920–928) or using the assay described here. MT-2 cells were infected with either HIV-1 NL4-3 or HIV-1 NL4-3([…]) and incubated in the presence of serial 0.5 log dilutions of test compounds. Three days later, culture supernatants were collected and virus production, as determined by p24 ELISA, was assayed. Percent inhibition was calculated as p24 concentration in compound-treated samples as compared to infected, compound-free controls. Inhibition of viral replication is determined by measuring reduction in HIV p24 present in the culture supernatant, using a Beckman-Coulter p24HIV-1 Ag EIA kit and following the supplied protocol. Absorbance is read on a MRX microplate reader (Dynex Technologies). The EC50 was calculated as the concentration of compound that effected a decrease in the p24 production by infected, compound-treated cells to 50% of that produced by infected, compound-free cells.

Data set [3] has as its system HIV-1 NL4-3 or HIV-1 NL4-3(I84V/L90M). Put plainly: Susceptibility assay, p24 ELISA in infected MT-2 cells. In kind it is cell-based. The conditions noted are these: Human immunodeficiency virus 1, NL43, MT2, read-out: EC50 or IC50 (mM), values without asterisk (EC50). In short, it runs like this: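 MT-2 cells infected with HIV-1 NL4-3 or the I84V/L90M mutant were incubated with 0.5 log serial compound dilutions for three days. Supernatant p24 was quantified by ELISA. EC50 is the concentration reducing p24 to 50% of infected, compound-free controls.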

Where [4] appears, read: Human immunodeficiency virus 1, NL43, read-out: Ave CPE EC50.

Experimental findings from US7094909B2, “HIV protease inhibitors, compositions containing the same, their pharmaceutical uses and materials for their synthesis” (priority 2001, dated 2006) are described below.

Structures are written as SMILES. Like-named read-outs stand apart in the source and are kept apart here.

In general, Ki refers to a dissociation constant, usually derived from enzyme kinetics or from competition with a known ligand. Low values mean tighter binding, high ones weaker binding. Usually EC50 stands for the concentration at which the effect is half-maximal. As usually defined, the IC50 is the concentration needed to halve the response being measured. With `Cc1ccccc1CNC(=O)[C@H]1N(C(=O)[C@@H](O)[C@H](Cc2ccccc2)NC(=O)COc2c(C)cccc2C)CSC1(C)C` [Example B7, (R)-3-{(2S,3S)-3-[2-(2,6-Dimethylphenoxy)-ethanoylamino]-2-hydroxy-4-phenyl-butanoyl}-5,5-dimethylthiazolidine-4-carboxylic acid 2-methyl-benzylamide], the Ki in data set [1] is < 0.1 nM. Also, in data set [2] (setting [4]), the EC50 turned out to be 265 nM. In the data set on 461, 84V, 90M virus, the IC50 turned out to be 333 nM.

For `C=CCNC(=O)[C@H]1N(C(=O)[C@@H](O)[C@H](Cc2ccccc2)NC(=O)c2cccc3c2CCN3)CSC1(C)C` [Example B21, 2,3-Dihydro-1H-indole-4-carboxylic acid [(1S,2S)-3-((R)-4-allylcarbamoyl-5,5-dimethyl-thiazolidin-3-yl)-1-benzyl-2-hydroxy-3-oxo-propyl]-amide], affinity in data set [1] was put at a Ki of 0.91 nM. Also, in data set [2] (setting [4]), the EC50 is 109 nM. In the data set with 461, 84V, 90M virus, the IC50 stood at 547 nM.

In data set [1], `Cc1ccccc1CNC(=O)[C@H]1N(C(=O)[C@@H](O)[C@H](Cc2ccccc2)NC(=O)O[C@H]2CCOC2)CSC1(C)C` [Example B1, {1-Benzyl-3-[5,5-dimethyl-4-(2-methyl-benzylcarbamoyl)-thiazoldin-3-yl]-2-hydroxy-3-oxo-propyl}-carbamic acid tetrahydropfuran-3-yl-ester] returned a Ki of 0.27 nM. The EC50 in data set [2] (setting [4]) came out at 49 nM. Besides, the IC50 in the data set on 461, 84V, 90M virus was determined as 236 nM.

As a reminder, the melting point is the temperature of the solid-liquid transition. In turn, `COc1cccc(CNC(=O)[C@H]2N(C(=O)[C@@H](O)C(Cc3ccccc3)NC(=O)c3cccc(O)c3C)CSC2(C)C)c1` (single isomer, unassigned) came in with a melting point of 108 to 110 °C.

Turning to `Cc1c(O)cccc1C(=O)N[C@@H](Cc1ccccc1)[C@H](O)C(=O)N1CSC(C)(C)[C@H]1C(=O)NCc1ccco1` [Example A15, (R)-3-((2S,3S)-2-Hydroxy-3-{[1-(3-hydroxy-2-methyl-phenyl)-methanoyl]-amino}-4-phenyl-butanoyl)-5,5-dimethyl-thiazolidine-4-carboxylic acid (furan-2-ylmethyl)-amide], the Ki in data set [1] was < 0.1 nM. The EC50 in data set [2] (setting [4]) was found to be 55 nM. Besides, the IC50 in the data set on 461, 84V, 90M virus was 57 nM.

In data set [1], `CCCC(=O)N[C@@H](Cc1ccccc1)[C@H](O)C(=O)N1CSC(C)(C)[C@H]1C(=O)NCc1ccccc1C` [Example B20, (R)-3-((2S,3S)-3-Butyrylamino-2-hydroxy-4-phenyl-butyryl)-5,5-dimethyl-thiazolidine-4-carboxylic acid 2-methyl-benzylamide] displayed a Ki of 2.1 nM. In addition, the EC50 in data set [2] (setting [4]) was found to be 1560 nM. For the same compound, the IC50 in the data set with 461, 84V, 90M virus is 2080 nM.

Turning to `Cc1ccccc1CNC(=O)[C@H]1N(C(=O)[C@@H](O)[C@H](Cc2ccccc2)NC(=O)c2cccc3c2CCN3)CSC1(C)C` [Example B6, 2,3-Dihydro-1H-indole-4-carboxylic acid {(1S,2S)-1-benzyl-3-[(R)-5,5-dimethyl-4-(2-methyl-benzylcarbamoyl)-thiazolidin-3-yl]-2-hydroxy-3-oxo-propyl}-amide], in data set [1], the Ki amounted to 0.31 nM. Besides, the concentration for a half-maximal effect (EC50) in data set [2] (setting [4]) came out at 95 nM. In addition, in the data set on 461, 84V, 90M virus, the IC50 came to 405 nM.

`Cc1c(O)cccc1C(=O)N[C@@H](Cc1ccccc1)[C@H](O)C(=O)N1CSC(C)(C)[C@H]1C(=O)N[C@@H]1CCSc2ccccc21` [Example A18, (R)-3-((2S,3S)-2-Hydroxy-3-{[1-(3-hydroxy-2-methyl-phenyl)-methanoyl]-amino}-4-phenyl-butanoyl)-5,5-dimethyl-thiazolidine-4-carboxylic acid (R)-thiochroman-4-ylamide] returned a melting point of 125 to 127 °C. Further, in data set [1], the Ki amounted to 0.3 nM. Further, the EC50 in data set [2] (setting [4]) was 27 nM.

As to `Cc1c(O)cccc1C(=O)N[C@@H](Cc1ccccc1)[C@H](O)C(=O)N1CSC(C)(C)[C@H]1C(=O)NCC1CC1` [Example A20, (R)-3-((2S,3S)-2-Hydroxy-3-{[1-(3-hydroxy-2-methyl-phenyl)-methanoyl]-amino}-4-phenyl-butanoyl)-5,5-dimethyl-thiazolidine-4-carboxylic acid cyclopropylmethyl-amide], the affinity in data set [1], expressed as Ki, was 0.16 nM. Also, in data set [2] (setting [4]), the EC50 turned out to be 35 nM. Besides, the IC50 in the data set on 461, 84V, 90M virus amounted to 219 nM.

In data set [1], `Cc1c(O)cccc1C(=O)N[C@@H](Cc1ccccc1)[C@H](O)C(=O)N1CSC(C)(C)[C@H]1C(=O)NCc1ccc2c(c1)OCO2` [Example A14, 3-((2S,3S)-2-Hydroxy-3-{[1-(3-hydroxy-2-methyl-phenyl)-methanoyl]-amino}-4-phenyl-butanoyl)-5,5-dimethyl-thiazolidine-4-carboxylic acid (benzo[1,3]dioxol-5-ylmethyl)-amide] displayed a Ki of 0.32 nM. The EC50 in data set [2] (Human immunodeficiency virus 1, NL43, read-out: Ave CPE EC50 (mM)) stood at 61 nM. For the same compound, in the data set with 461, 84V, 90M virus, the IC50 was 226 nM.

Regarding `Cc1c(O)cccc1C(=O)N[C@@H](Cc1ccccc1)[C@H](O)C(=O)N1CSC(C)(C)[C@H]1C(=O)NCc1cccs1` [Example A23, (R)-3-((2S,3S)-2-Hydroxy-3-{[1-(3-hydroxy-2-methyl-phenyl)-methanoyl]-amino}-4-phenyl-butanoyl)-5,5-dimethyl-thiazolidine-4-carboxylic acid (thiophen-2-ylmethyl)-amide], the Ki in data set [1] was 2.6 nM. For the same compound, the EC50 in data set [2] (setting [4]) was determined as 17 nM. The IC50 in the data set on 461, 84V, 90M virus was found to be 48 nM.

`Cc1c(O)cccc1C(=O)N[C@@H](Cc1ccccc1)[C@H](O)C(=O)N1CSC(C)(C)[C@H]1C(=O)NCC1CCCCC1` [Example A13, 3-[2-Hydroxy-3-(3-hydroxy-2-methyl-benzoylamino)-4-phenyl-butyryl]-5,5-dimethyl-thiiazolidine-4-carboxylic acid cyclohexylmethyl-amide] came in with a Ki in data set [1] of 3.4 nM. In addition, in data set [2] (setting [4]), the EC50 was found to be 495 nM. For the same compound, in the data set with 461, 84V, 90M virus, the IC50 amounted to 921 nM.

As for `Cc1c(O)cccc1C(=O)N[C@@H](Cc1ccccc1)[C@H](O)C(=O)N1CSC(C)(C)[C@H]1C(=O)NC1CCCCC1` [Example A21, (R)-3-((2S,3S)-2-Hydroxy-3-{[1-(3-hydroxy-2-methyl-phenyl)-methanoyl]-amino)-4-phenyl-butanoyl)-5,5-dimethyl-thiazolidine-4-carboxylic acid cyclohexylamide], the Ki in data set [1] was < 0.1 nM. The EC50 in data set [2] (setting [4]) worked out at 49 nM. For the same compound, the IC50 in the data set with 461, 84V, 90M virus is 655 nM.

On to `Cc1cnccc1CNC(=O)[C@H]1N(C(=O)[C@@H](O)[C@H](Cc2ccccc2)NC(=O)c2cccc(O)c2C)CSC1(C)C` [Example A10, 3-[2-Hydroxy-3-(3-hydroxy-2-methyl-benzoylamino)-4-phenyl-butyryl]-5,5-dimethyl-thiazolidine-4-carboxylic acid (3-methyl-pyridin4-ylmethyl)-amide], for which the Ki in data set [1] was < 0.1 nM. The EC50 in data set [2] (setting [4]) was 104 nM. In addition, the IC50 with 461, 84V, 90M virus turned out to be 118 nM.

As to `Cc1c(O)cccc1C(=O)N[C@@H](Cc1ccccc1)[C@H](O)C(=O)N1CSC(C)(C)[C@H]1C(=O)N[C@H]1CCCc2occc21` (stereo in doubt) [Example A48, 3-[2-Hydroxy-3-(3-hydroxy-2-methyl-benzoylamino)-4-phenyl-butyryl]-5,5-dimethyl-thiazolidine-4-carboxylic acid (4,5,6,7-tetrahydro-benzofuran-4-yl)-amide], the Ki in data set [1] is < 0.1 nM. Further, the EC50 turned out to be 37 nM in data set [2] (setting [4]) and 92 nM in data set [3].

With `Cc1c(O)cccc1C(=O)N[C@@H](Cc1ccccc1)[C@H](O)C(=O)N1CSC(C)(C)[C@H]1C(=O)N[C@H]1CCCc2ncccc21` [Example A42, 3-[2-Hydroxy-3-(3-hydroxy-2-methyl-benzoylamino)-4-phenyl-butyryl]-5,5-dimethyl-thiazolidine-4-carboxylic acid (5,6,7,8-tetrahydro-quinolin-5-yl)-amide], the Ki in data set [1] was < 0.1 nM. The concentration for a half-maximal effect (EC50) is 65 nM in data set [2] (setting [4]) and 98 nM in data set [3].

With `Cc1c(O)cccc1C(=O)N[C@@H](Cc1ccccc1)[C@H](O)C(=O)N1CC(F)(F)C(C)(C)[C@H]1C(=O)N[C@H]1CCc2ccccc21` [Example C16, (S)-4,4-Difluoro-1-[(2S,3S)-2-hydroxy-3-(3-hydroxy-2-methyl-benzoylamino)-4-phenyl-butyryl]-3,3-dimethyl-pyrrolidine-2-carboxylic acid (S)-indan-1-ylamide], in data set [1], the Ki is < 0.1 nM. Besides, the EC50 is 19 nM in data set [2] (setting [4]) and 201 nM in data set [3].
